Patent publication US3941842A, “P,P'-Disubstituted α-trichloromethylbenzylanilines” (priority 1972, dated 1976)

Legend:
Culex fatigans larvae = test: LC50 to Culex fatigans larvae; format: in vivo, Culex pipiens quinquefasciatus Say
Excerpt: (§1) World Health Org. 363 (1971). […] Food Chem. 1145 (1970). […] Sci. Tech. 709 (1971). The results are detailed in Table II. ##SPC1##

[1] = test system: Musca domestica (SNAIDM and RSP strains), Phormia regina, Culex fatigans and Anopheles albimanus; test: Insecticidal activity over the test insects (Table II, summarised in words); format: in vivo; settings: for SR values (in words): synergism by piperonyl butoxide; for insecticidal effectiveness / toxicity (in words): overall, test insects of Table II
Protocol: (§2) The compounds of the present invention were tested for insecticidal activity by standard methods, and compared with the insecticidal activities of DDT and symmetrical analogs of DDT, such methoxychlor. Toxicological methods for the determination of the topical LD50 values to adult female SNAIDM and RSP houseflies, Musca domestica L. and to Phormia regina, and LC50 values to Culex pipiens quinquefasciatus Say, and Anopheles albimanus Weid mosquitoes were described by Metcalf el al., 44 Bull. World Health Org. 363 (1971). The methods for evaluation of metabolism by mouse liver homogenate and by female RSP housefly and salt-marsh caterpillar larvae Estigmene acrea Drury, were described by Kapoor et al., 18 J. Agr. Food Chem. 1145 (1970). The techniques for model eocsystem evluation were described by Metcalf et al., 5 J. Environ. Sci. Tech. 709 (1971).
(§3) Since piperonyl butoxide serves to block the action of MFO, the synergized LD50 values express the intrinsic toxicity of the compounds. With the detoxifying action of MFO enzymes blocked, the intrinsic toxicity of the compounds can thus be measured.

[2] = test system: Anopheles albimanus larvae; test: LC50 to Anopheles albimanus larvae; format: in vivo, Anopheles albimanus Weid
Excerpt: as §1

Musca domestica Snaidm = test: Topical LD50 to adult female SNAIDM houseflies; settings: for LD50: Musca domestica, read-out: Topical LD50, Musca domestica Snaidm, Alone; for LD50 / Topical LD50, Musca domestica Snaidm, with pb: topical; for Topical LD50, Musca domestica Snaidm, with pb: SNAIDM strain, synergized with piperonyl butoxide; for SR, Musca domestica Snaidm: synergistic ratio: LD50 alone/LD50 synergized with piperonyl butoxide
Protocol: as §2, §3

Phormia regina = test: whole plant or invertebrate; settings: for LD50: Phormia regina, read-out: Topical LD50, Phormia regina, Alone; for LD50 / Topical LD50, Phormia regina, with pb: topical; for SR, Phormia regina: synergistic ratio: LD50 alone/LD50 synergized with piperonyl butoxide; for Topical LD50, Phormia regina, with pb: synergized with piperonyl butoxide
Protocol: as §2, with “363 (1971).” left out, “Food Chem. 1145 (1970).” left out, “Tech.” for “Tech. 709 (1971).”
as §3

Musca domestica Rsp = test: Topical LD50 to adult female RSP houseflies; settings: for LD50: Musca domestica, read-out: Topical LD50, Musca domestica Rsp, Alone; for LD50 / Topical LD50, Musca domestica Rsp, with pb: topical; for Topical LD50, Musca domestica Rsp, with pb: RSP strain, synergized with piperonyl butoxide; for SR, Musca domestica Rsp: synergistic ratio: LD50 alone/LD50 synergized with piperonyl butoxide
Protocol: as §2, §3

## Clc1ccc(NC(c2ccc(Cl)cc2)C(Cl)(Cl)Cl)cc1 (stereo not drawn) [Compound I]
Culex fatigans larvae
  LC50 Culex fatigans larvae: 0.026 ppm
[1]; adult insects
  toxicity to adult insects (in words): low toxicity to adult insects
[1]; mosquito larvae
  larvicidal effectiveness (in words): very effective larvicide
[2]
  LC50 Anopheles albimanus larvae: 0.090 ppm
Musca domestica Snaidm
  LD50: 115 mg/kg
  Topical LD50, Musca domestica Snaidm, with pb: 13.5 μg per g
  SR, Musca domestica Snaidm: 8.5
Phormia regina
  LD50: > 250 mg/kg
  SR, Phormia regina: > 5.5
  Topical LD50, Phormia regina, with pb: 42.5 μg per g
Musca domestica Rsp
  LD50: 220 mg/kg
  Topical LD50, Musca domestica Rsp, with pb: 25 μg per g
  SR, Musca domestica Rsp: 8.8

## COc1ccc(NC(c2ccc(C)cc2)C(Cl)(Cl)Cl)cc1 (stereo not drawn) [Compound X]
Culex fatigans larvae
  LC50 Culex fatigans larvae: 0.54 ppm
[1]
  SR values (in words): higher SR values
[2]
  LC50 Anopheles albimanus larvae: 0.48 ppm
Musca domestica Snaidm
  LD50: 48 mg/kg
  Topical LD50, Musca domestica Snaidm, with pb: 8.5 μg per g
  SR, Musca domestica Snaidm: 5.6
Phormia regina
  LD50: 135 mg/kg
  SR, Phormia regina: 9.6
  Topical LD50, Phormia regina, with pb: 14.0 μg per g
Musca domestica Rsp
  LD50: 65 mg/kg
  Topical LD50, Musca domestica Rsp, with pb: 7.5 μg per g
  SR, Musca domestica Rsp: 8.7

## Cc1ccc(NC(c2ccc(C)cc2)C(Cl)(Cl)Cl)cc1 (stereo not drawn) [IV]
Culex fatigans larvae
  LC50 Culex fatigans larvae: 0.18 ppm
[1]
  insecticidal effectiveness / toxicity (in words): one of the more insecticidal compounds
[2]
  LC50 Anopheles albimanus larvae: 0.21 ppm
Musca domestica Snaidm
  LD50: 43 mg/kg
  Topical LD50, Musca domestica Snaidm, with pb: 5.0 μg per g
  SR, Musca domestica Snaidm: 8.6
Phormia regina
  LD50: 33.7 mg/kg
  Topical LD50, Phormia regina, with pb: 21.0 μg per g
Musca domestica Rsp
  LD50: 43 mg/kg
  Topical LD50, Musca domestica Rsp, with pb: 6.5 μg per g
  SR, Musca domestica Rsp: 6.6

## CCOc1ccc(C(Nc2ccc(Cl)cc2)C(Cl)(Cl)Cl)cc1 (stereo not drawn) [VII, α-trichloromethyl1p-ethoxybenzyl-p-chloroaniline]
Culex fatigans larvae
  LC50 Culex fatigans larvae: 0.032 ppm
[1]
  insecticidal effectiveness / toxicity (in words): only slightly less active than compound XI
[2]
  LC50 Anopheles albimanus larvae: 0.060 ppm
Musca domestica Snaidm
  LD50: 19 mg/kg
  Topical LD50, Musca domestica Snaidm, with pb: 10.5 μg per g
  SR, Musca domestica Snaidm: 1.8
Phormia regina
  LD50: 24.5 mg/kg
  Topical LD50, Phormia regina, with pb: 20.0 μg per g
Musca domestica Rsp
  LD50: 31 mg/kg
  Topical LD50, Musca domestica Rsp, with pb: 13.5 μg per g
  SR, Musca domestica Rsp: 2.3

## COc1ccc(NC(c2ccc(Cl)cc2)C(Cl)(Cl)Cl)cc1 (stereo not drawn) [VI]
Culex fatigans larvae
  LC50 Culex fatigans larvae: 0.44 ppm
[1]
  SR values (in words): higher SR values
[2]
  LC50 Anopheles albimanus larvae: 0.37 ppm
Musca domestica Snaidm
  LD50: 39 mg/kg
  Topical LD50, Musca domestica Snaidm, with pb: 6.5 μg per g
  SR, Musca domestica Snaidm: 6.0
Phormia regina
  LD50: 128 mg/kg
  SR, Phormia regina: 1.6
  Topical LD50, Phormia regina, with pb: 80 μg per g
Musca domestica Rsp
  LD50: 49 mg/kg
  Topical LD50, Musca domestica Rsp, with pb: 14.0 μg per g
  SR, Musca domestica Rsp: 3.4

## CCOc1ccc(NC(c2ccccc2)C(Cl)(Cl)Cl)cc1 (stereo not drawn) [XIX]
Culex fatigans larvae
  LC50 Culex fatigans larvae: > 1.0 ppm
[1]
  insecticidal effectiveness / toxicity (in words): Toxicity was greatly decreased
[2]
  LC50 Anopheles albimanus larvae: 0.61 ppm
Musca domestica Snaidm
  LD50: > 500 mg/kg
  Topical LD50, Musca domestica Snaidm, with pb: 31.0 μg per g
  SR, Musca domestica Snaidm: > 16
Phormia regina
  LD50: > 250 mg/kg
  Topical LD50, Phormia regina, with pb: > 250 μg per g
Musca domestica Rsp
  LD50: > 500 mg/kg
  Topical LD50, Musca domestica Rsp, with pb: 120 μg per g
  SR, Musca domestica Rsp: > 4

## CCCCOc1ccc(C(Nc2ccc(OC)cc2)C(Cl)(Cl)Cl)cc1 (stereo not drawn) [XVIII]
Culex fatigans larvae
  LC50 Culex fatigans larvae: 0.60 ppm
[1]
  insecticidal effectiveness / toxicity (in words): Toxicity was also substantially decreased
[2]
  LC50 Anopheles albimanus larvae: 0.77 ppm
Musca domestica Snaidm
  LD50: 370 mg/kg
  Topical LD50, Musca domestica Snaidm, with pb: 12.5 μg per g
  SR, Musca domestica Snaidm: 30
Phormia regina
  LD50: > 250 mg/kg
  Topical LD50, Phormia regina, with pb: 67.5 μg per g
Musca domestica Rsp
  LD50: 230 mg/kg
  Topical LD50, Musca domestica Rsp, with pb: 32.0 μg per g
  SR, Musca domestica Rsp: 7.2
